Reference: publication PMC7604503, “Cyclic peptides can engage a single binding pocket through highly divergent modes” (Proceedings of the National Academy of Sciences of the …, 2020)
Where a SMILES comes first, the peptide text is derived from it. Bridges are numbered along the chain shown (N, C = ends).

Assays:
FALZ = molecular target: T1, FALZ (Homo sapiens, UniProt Q12830); assay: BROMOscan competition binding assay (BromoMAX, Eurofins DiscoverX); details: for Percent Control FALZ: compound concentration 1000 nM, lower percentage control = stronger affinity
T1 construct: purchased Eurofins DiscoverX (BROMOscan, BromoMAX)

BRD2(2) = molecular target: T2, BRD2(2) (Homo sapiens, UniProt P25440); assay: as above; details: for Percent Control BRD2(2): compound concentration 1000 nM, lower percentage control = stronger affinity
T2 construct: BRD2(2); purchased Eurofins DiscoverX (BROMOscan, BromoMAX)
T2 sequence (P25440 344-455 limits assumed): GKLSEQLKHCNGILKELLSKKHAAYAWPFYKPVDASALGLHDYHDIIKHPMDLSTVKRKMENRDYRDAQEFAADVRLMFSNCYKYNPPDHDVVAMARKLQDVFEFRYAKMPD

BRD7 = molecular target: T3, BRD7 (Homo sapiens, UniProt Q9NPI1); assay: as above; details: for Percent Control BRD7: compound concentration 1000 nM, lower percentage control = stronger affinity
T3 construct: purchased Eurofins DiscoverX (BROMOscan, BromoMAX)
T3 sequence (Q9NPI1 1-651): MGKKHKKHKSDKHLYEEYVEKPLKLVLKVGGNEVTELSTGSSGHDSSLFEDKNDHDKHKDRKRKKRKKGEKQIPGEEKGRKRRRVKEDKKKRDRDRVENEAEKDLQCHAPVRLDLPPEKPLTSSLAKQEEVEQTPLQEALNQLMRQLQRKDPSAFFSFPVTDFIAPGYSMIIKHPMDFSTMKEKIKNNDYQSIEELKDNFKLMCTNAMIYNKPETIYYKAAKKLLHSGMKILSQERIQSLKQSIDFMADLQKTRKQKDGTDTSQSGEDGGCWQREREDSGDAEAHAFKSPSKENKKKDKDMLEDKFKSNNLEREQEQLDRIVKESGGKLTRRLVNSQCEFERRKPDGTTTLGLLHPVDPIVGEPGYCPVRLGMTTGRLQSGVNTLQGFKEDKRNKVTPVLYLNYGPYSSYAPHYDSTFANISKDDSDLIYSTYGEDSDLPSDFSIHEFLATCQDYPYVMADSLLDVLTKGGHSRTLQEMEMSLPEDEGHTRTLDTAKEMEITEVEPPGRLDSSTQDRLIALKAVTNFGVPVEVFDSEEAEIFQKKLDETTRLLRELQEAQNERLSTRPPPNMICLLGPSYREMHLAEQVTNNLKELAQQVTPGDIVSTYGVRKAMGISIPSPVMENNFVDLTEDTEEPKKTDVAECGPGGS

PCAF = molecular target: T4, PCAF (Homo sapiens, UniProt Q92831); assay: as above; details: for Percent Control PCAF: compound concentration 1000 nM, lower percentage control = stronger affinity
T4 construct: purchased Eurofins DiscoverX (BROMOscan, BromoMAX)

BRD2-BD2 = molecular target: T5, BRD2-BD2 (Homo sapiens, UniProt P25440); assay: SPR binding of peptides to immobilised biotinylated BET bromodomain
T5 construct: human BRD2 (BD1: 65-194; BD2: 347-455); Avi tag (biotinylated); made in house; host or cells: E. coli BL21(DE3)
T5 sequence (P25440 347-455): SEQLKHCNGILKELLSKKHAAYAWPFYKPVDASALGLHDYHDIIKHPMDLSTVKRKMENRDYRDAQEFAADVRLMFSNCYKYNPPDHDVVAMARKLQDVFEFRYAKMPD
Description: (§1) We next assessed the ability of each of the three lead peptides to bind BRD3-BD1. […] To assess selectivity for other BET BDs, we used SPR to determine the binding affinity of each peptide toward the remaining BDs from BRD2, BRD3, and BRD4 (Fig. 1B). […]
(§2) Crude peptides were purified by reverse-phase high-performance liquid chromatography using a Chromolith Prep column (Merck) on a Prominence LC-20AP system (Shimadzu) (Solvent A: 0.1% TFA in H2O, Solvent B: 0.1% TFA in acetonitrile) to >95% purity as determined by mass spectrometry (Fig. S17). Purified peptides were reconstituted in DMSO and concentrations determined from their absorbance at 280 nm in 5% DMSO using predicted extinction coefficients.
(§3) Surface plasmon resonance (SPR)
(§4) Measurements were conducted on a T200 or S200 (GE Healthcare) and data analysed using the Biacore Insight Evaluation Software. Experiments were performed at 4 °C in single cycle kinetics mode. Biotinylated BET bromodomains were immobilised on a CAP chip (GE Healthcare) with a […]
(§5) pH 7.5 was used as the running buffer. […]

BRD3-BD1 = molecular target: T6, BRD3-BD1 (Homo sapiens, UniProt Q15059); assay: as above
T6 construct: BRD3 (BD1: 25-147); Avi tag (biotinylated); made in house; host or cells: E. coli BL21(DE3)
T6 sequence (Q15059 25-147): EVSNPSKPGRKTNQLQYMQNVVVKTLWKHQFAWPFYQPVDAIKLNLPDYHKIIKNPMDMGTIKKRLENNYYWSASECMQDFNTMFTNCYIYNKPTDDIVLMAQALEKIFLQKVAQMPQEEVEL
Description: as §1, §2, §3, §4, §5

TAF1L(2) = molecular target: T7, TAF1L(2) (Homo sapiens, UniProt Q8IZX4); assay: BROMOscan competition binding assay (BromoMAX, Eurofins DiscoverX); details: for Percent Control TAF1L(2): compound concentration 1000 nM, lower percentage control = stronger affinity
T7 construct: TAF1L(2); purchased Eurofins DiscoverX (BROMOscan, BromoMAX)
T7 sequence (Q8IZX4 1519-1654 limits assumed): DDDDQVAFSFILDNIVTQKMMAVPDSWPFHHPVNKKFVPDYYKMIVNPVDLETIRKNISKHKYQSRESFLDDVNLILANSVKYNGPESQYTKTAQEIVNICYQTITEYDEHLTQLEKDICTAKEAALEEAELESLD

BRD2(1) = molecular target: T8, BRD2(1) (Homo sapiens, UniProt P25440); assay: as above; details: for Percent Control BRD2(1): compound concentration 1000 nM, lower percentage control = stronger affinity
T8 construct: BRD2(1); purchased Eurofins DiscoverX (BROMOscan, BromoMAX)
T8 sequence (P25440 71-194 limits assumed): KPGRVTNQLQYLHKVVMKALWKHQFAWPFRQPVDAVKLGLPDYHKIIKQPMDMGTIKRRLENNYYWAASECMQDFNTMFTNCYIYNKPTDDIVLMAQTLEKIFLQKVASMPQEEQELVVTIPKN

CREBBP = molecular target: T9, CREBBP (Homo sapiens, UniProt Q92793); assay: as above; details: for Percent Control CREBBP: compound concentration 1000 nM, lower percentage control = stronger affinity
T9 construct: purchased Eurofins DiscoverX (BROMOscan, BromoMAX)
T9 sequence (Q92793 whole entry): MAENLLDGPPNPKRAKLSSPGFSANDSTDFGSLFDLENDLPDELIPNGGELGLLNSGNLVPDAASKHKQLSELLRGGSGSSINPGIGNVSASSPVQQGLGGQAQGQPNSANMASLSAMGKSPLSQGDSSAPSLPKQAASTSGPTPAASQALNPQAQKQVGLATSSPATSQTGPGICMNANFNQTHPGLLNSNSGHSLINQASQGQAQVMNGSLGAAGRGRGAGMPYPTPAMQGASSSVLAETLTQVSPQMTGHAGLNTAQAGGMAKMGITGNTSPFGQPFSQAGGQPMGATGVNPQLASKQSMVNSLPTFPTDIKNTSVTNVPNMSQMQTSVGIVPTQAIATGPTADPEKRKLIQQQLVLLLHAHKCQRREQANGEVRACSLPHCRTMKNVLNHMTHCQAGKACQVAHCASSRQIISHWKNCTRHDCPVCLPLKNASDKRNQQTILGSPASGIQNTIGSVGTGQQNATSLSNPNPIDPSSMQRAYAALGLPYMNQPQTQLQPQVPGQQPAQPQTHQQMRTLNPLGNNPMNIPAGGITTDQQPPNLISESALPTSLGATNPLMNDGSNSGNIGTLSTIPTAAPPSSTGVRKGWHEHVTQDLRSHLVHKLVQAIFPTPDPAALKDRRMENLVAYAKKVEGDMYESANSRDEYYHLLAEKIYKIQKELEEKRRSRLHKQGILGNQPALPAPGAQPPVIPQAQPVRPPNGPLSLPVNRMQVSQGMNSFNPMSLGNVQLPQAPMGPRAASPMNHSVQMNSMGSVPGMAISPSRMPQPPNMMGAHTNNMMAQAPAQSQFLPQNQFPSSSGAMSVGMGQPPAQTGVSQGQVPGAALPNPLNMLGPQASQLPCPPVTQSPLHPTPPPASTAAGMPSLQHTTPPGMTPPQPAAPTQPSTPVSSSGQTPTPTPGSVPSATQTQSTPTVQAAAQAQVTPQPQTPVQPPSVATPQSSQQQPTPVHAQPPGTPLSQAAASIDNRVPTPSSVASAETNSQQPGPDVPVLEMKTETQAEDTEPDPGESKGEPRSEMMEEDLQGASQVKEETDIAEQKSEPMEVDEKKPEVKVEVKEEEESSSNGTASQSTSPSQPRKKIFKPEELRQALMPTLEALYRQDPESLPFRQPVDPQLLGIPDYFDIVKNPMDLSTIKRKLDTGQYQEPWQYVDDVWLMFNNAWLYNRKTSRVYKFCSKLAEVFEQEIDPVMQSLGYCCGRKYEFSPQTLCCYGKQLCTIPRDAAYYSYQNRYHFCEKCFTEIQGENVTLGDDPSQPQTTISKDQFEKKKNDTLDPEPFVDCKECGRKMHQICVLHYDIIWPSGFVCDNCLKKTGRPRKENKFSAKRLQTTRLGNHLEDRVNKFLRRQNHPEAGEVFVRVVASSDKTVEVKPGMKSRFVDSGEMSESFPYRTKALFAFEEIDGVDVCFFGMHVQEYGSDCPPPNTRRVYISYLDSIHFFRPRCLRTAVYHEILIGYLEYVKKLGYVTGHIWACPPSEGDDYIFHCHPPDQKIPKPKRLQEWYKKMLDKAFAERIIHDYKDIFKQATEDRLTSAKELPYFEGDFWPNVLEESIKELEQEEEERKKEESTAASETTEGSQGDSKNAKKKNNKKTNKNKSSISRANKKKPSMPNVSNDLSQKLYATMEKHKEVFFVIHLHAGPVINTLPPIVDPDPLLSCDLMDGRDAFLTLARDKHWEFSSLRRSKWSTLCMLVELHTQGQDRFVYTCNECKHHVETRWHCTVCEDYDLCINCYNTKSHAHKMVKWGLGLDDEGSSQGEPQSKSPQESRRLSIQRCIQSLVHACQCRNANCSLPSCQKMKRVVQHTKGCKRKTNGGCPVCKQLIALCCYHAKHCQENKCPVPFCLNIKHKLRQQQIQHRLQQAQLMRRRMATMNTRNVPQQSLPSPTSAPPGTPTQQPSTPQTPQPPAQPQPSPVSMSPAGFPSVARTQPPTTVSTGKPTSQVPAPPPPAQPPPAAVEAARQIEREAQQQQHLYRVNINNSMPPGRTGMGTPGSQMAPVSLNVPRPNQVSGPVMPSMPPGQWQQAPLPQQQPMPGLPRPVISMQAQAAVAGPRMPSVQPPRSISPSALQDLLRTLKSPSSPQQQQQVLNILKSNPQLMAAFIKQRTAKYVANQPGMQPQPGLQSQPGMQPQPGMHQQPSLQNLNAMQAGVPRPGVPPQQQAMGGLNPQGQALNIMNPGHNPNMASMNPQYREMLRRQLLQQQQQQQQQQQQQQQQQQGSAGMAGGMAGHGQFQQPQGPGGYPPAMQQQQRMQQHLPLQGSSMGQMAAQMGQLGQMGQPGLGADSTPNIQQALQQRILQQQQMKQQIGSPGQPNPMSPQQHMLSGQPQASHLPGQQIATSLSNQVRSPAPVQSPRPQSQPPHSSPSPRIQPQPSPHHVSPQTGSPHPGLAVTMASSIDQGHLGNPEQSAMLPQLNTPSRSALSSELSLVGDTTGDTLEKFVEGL

BRD3(1) = molecular target: T10, BRD3(1) (Homo sapiens, UniProt Q15059); assay: as above; details: for Percent Control BRD3(1): compound concentration 1000 nM, lower percentage control = stronger affinity
T10 construct: BRD3(1); purchased Eurofins DiscoverX (BROMOscan, BromoMAX)
T10 sequence (Q15059 24-144 limits assumed): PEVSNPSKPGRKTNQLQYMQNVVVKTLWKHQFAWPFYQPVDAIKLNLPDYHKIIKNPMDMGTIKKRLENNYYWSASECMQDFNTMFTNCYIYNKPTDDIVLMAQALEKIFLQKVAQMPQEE

BRD9 = molecular target: T11, BRD9 (Homo sapiens, UniProt Q9H8M2); assay: as above; details: for Percent Control BRD9: compound concentration 1000 nM, lower percentage control = stronger affinity
T11 construct: purchased Eurofins DiscoverX (BROMOscan, BromoMAX)
T11 sequence (Q9H8M2 1-597): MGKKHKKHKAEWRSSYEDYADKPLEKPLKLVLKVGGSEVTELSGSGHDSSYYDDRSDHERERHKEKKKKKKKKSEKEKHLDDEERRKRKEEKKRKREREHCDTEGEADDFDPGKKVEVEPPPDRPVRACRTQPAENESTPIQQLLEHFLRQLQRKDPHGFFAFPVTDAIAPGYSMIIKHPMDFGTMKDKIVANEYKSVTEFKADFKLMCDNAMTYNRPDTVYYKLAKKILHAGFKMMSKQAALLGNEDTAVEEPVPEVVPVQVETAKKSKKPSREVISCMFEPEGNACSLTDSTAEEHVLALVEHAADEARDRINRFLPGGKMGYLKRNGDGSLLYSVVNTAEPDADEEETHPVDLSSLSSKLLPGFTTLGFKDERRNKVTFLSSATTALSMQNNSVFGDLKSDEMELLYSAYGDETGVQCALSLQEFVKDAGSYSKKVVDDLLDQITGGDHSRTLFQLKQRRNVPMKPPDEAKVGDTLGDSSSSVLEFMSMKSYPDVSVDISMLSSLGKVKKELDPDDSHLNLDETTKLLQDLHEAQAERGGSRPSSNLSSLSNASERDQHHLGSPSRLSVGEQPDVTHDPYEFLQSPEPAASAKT

CECR2 = molecular target: T12, CECR2 (Homo sapiens, UniProt Q9BXF3); assay: as above; details: for Percent Control CECR2: compound concentration 1000 nM, lower percentage control = stronger affinity
T12 construct: purchased Eurofins DiscoverX (BROMOscan, BromoMAX)
T12 sequence (Q9BXF3 whole entry): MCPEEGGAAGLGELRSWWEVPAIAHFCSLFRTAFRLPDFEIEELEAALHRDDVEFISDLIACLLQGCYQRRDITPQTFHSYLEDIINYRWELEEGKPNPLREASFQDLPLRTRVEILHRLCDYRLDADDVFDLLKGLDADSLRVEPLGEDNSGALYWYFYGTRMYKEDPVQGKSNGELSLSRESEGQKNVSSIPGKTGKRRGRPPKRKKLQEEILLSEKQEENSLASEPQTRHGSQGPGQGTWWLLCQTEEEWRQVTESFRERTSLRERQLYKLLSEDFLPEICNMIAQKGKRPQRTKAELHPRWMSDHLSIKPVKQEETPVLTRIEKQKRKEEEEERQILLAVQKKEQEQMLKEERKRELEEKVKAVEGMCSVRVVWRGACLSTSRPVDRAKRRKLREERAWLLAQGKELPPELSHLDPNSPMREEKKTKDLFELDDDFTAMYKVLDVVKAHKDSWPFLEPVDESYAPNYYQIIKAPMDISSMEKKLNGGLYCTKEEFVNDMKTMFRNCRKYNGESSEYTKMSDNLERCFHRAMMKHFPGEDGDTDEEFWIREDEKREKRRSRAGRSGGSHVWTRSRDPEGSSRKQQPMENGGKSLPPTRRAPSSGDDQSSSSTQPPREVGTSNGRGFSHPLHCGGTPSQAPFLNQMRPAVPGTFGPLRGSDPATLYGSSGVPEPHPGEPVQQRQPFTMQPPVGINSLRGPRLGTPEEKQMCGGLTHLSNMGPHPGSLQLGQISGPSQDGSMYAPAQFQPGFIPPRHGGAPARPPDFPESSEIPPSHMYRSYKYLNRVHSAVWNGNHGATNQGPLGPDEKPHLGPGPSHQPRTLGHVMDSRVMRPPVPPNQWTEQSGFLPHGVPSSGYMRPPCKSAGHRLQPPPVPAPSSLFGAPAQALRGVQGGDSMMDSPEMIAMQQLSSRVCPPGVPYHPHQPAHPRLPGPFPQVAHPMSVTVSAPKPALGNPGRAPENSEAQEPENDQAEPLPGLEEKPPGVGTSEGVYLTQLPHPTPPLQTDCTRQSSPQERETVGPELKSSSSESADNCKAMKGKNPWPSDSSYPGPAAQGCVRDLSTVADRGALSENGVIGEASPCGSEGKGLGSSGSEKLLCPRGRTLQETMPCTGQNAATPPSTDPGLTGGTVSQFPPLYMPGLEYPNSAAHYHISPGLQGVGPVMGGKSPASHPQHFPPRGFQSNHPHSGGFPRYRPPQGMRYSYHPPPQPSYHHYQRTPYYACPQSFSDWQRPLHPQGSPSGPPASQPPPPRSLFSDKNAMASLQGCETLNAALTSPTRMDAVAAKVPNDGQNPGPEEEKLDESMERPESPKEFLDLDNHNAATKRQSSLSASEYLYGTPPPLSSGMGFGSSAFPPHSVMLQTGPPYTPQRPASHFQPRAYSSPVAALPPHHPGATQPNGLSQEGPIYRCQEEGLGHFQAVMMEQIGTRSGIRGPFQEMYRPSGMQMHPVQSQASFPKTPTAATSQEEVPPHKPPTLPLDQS

WDR9(2) = molecular target: T13, WDR9(2) (Homo sapiens, UniProt Q9NSI6); assay: as above; details: for Percent Control WDR9(2): compound concentration 1000 nM, lower percentage control = stronger affinity
T13 construct: WDR9(2); purchased Eurofins DiscoverX (BROMOscan, BromoMAX)
T13 sequence (Q9NSI6 1307-1433 limits assumed): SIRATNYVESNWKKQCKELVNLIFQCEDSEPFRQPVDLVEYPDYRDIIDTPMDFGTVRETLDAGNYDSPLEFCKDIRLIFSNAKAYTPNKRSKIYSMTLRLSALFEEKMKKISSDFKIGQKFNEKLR

[1] = gray boxed value: no reproducible signals observed at the concentrations used
[2] = 4 C, geometric mean and SD of two to five measurements

| Compound | Percent Control FALZ (FALZ) | Percent Control BRD2(2) (BRD2(2)) | Percent Control BRD7 (BRD7) | Percent Control PCAF (PCAF) | Kd (BRD3-BD1; [2]) | Percent Control TAF1L(2) (TAF1L(2)) | Percent Control BRD2(1) (BRD2(1)) | Percent Control CREBBP (CREBBP) | Percent Control BRD3(1) (BRD3(1)) | Percent Control BRD9 (BRD9) | Percent Control CECR2 (CECR2) | Percent Control WDR9(2) (WDR9(2)) | Kd (BRD2-BD2; [2]) | further results |
| --- | --- | --- | --- | --- | --- | --- | --- | --- | --- | --- | --- | --- | --- | --- |
| CC[C@H](C)[C@@H]1NC(=O)[C@H]([C@@H](C)O)NC(=O)[C@H](CCCCN)NC(=O)[C@H](Cc2c[nH]c3ccccc23)NC(=O)CSC[C@@H](C(N)=O)NC(=O)[C@H](CCC(N)=O)NC(=O)[C@H](CCCCNC(C)=O)NC(=O)[C@H]([C@@H](C)O)NC(=O)[C@H](CCCNC(=N)N)NC(=O)[C@H](Cc2c[nH]c3ccccc23)NC(=O)[C@H]([C@@H](C)O)NC(=O)[C@H](CCCCNC(C)=O)NC(=O)CNC(=O)[C@H](CCCCNC(C)=O)NC1=O [3.1B] ({CH2CO}-WKTIK(Ac)GK(Ac)TWRTK(Ac)QC-NH2; thioether N-14) | 73% | 100% | 99% | 94% | 0.49 ± 0.63 nM | 100% | 21% | 100% | 1.4% | 100% | 100% | 96% |  | Kd (BRD2-BD2; [1]): > 10000 nM |
| CC[C@H](C)[C@H](NC(=O)[C@H](CCCNC(=N)N)NC(=O)[C@H](CCCCNC(C)=O)NC(=O)[C@H](CCCNC(=N)N)NC(=O)[C@H](CC(C)C)NC(=O)[C@@H]1CSCC(=O)N[C@@H](Cc2c[nH]c3ccccc23)C(=O)N[C@@H](CCCCNC(C)=O)C(=O)NCC(=O)N[C@@H](Cc2ccc(O)cc2)C(=O)N[C@@H](CC(C)C)C(=O)N1)C(=O)N[C@@H](CCC(N)=O)C(=O)N[C@@H](CCCNC(=N)N)C(=O)N[C@H](C(=O)N[C@@H](Cc1ccc(O)cc1)C(=O)N[C@@H](CC(N)=O)C(N)=O)[C@@H](C)O [4.2C] ({CH2CO}-WK(Ac)GYLCLRK(Ac)RIQRTYN-NH2; thioether N-6) |  |  |  |  |  |  |  |  |  |  |  |  | 22 ± 26 nM | remaining binding at 1 µM (FALZ; read-out: Percent Control FALZ): 96%; remaining binding at 1 µM (BRD2(2); read-out: Percent Control BRD2(2)): 17%; remaining binding at 1 µM (BRD7; read-out: Percent Control BRD7): 97%; percent of control binding at 1 µM (PCAF): 100%; Kd (BRD3-BD1; [1]): > 10000 nM; remaining binding at 1 µM (TAF1L(2); read-out: Percent Control TAF1L(2)): 100%; percent of control binding at 1 µM (BRD2(1)): 85%; remaining binding at 1 µM (CREBBP; read-out: Percent Control CREBBP): 100%; remaining binding at 1 µM (BRD3(1); read-out: Percent Control BRD3(1)): 100%; percent of control binding at 1 µM (BRD9): 89%; percent of control binding at 1 µM (CECR2): 99%; percent of control binding at 1 µM (WDR9(2)): 85% |
| CC[C@H](C)[C@@H]1NC(=O)[C@H](Cc2c[nH]c3ccccc23)NC(=O)[C@H](Cc2c[nH]c3ccccc23)NC(=O)CSC[C@@H](C(N)=O)NC(=O)CNC(=O)[C@H](CCCCNC(C)=O)NC(=O)[C@H](CCCCN)NC(=O)[C@H](C(C)C)NC(=O)[C@H](CCCCNC(C)=O)NC(=O)[C@@H]2CCCN2C(=O)[C@H]([C@@H](C)CC)NC1=O [3.1C] ({CH2CO}-WWIIPK(Ac)VKK(Ac)GC-NH2; thioether N-11) | 93% | 0.35% | 96% | 96% | 0.08 ± 0.049 nM | 100% | 2.4% | 100% | 0% | 95% | 99% | 87% | 9.2 ± 25 nM |  |
